Measured values published in ChEMBL document CHEMBL4673345 (J Med Chem, 2020).
Calls of active or inactive are those of the source. The rule behind the calls is not given here.

What was measured:
SW-620 [1] = test: Antitumor activity against human SW620/Ad300 cells xenografted in BALB/c mouse assessed as induction of tumor apoptosis by measuring nuclear pyknosis at 20 mg/kg/day, ig for 21 days by TUNEL assay; type: functional, organism-based; details: time 21.0 day
SW-620 [2] = test: Antitumor activity against human SW620/Ad300 cells xenografted in BALB/c mouse assessed as reduction in tumor volume at 20 mg/kg/day, ig for 21 days; type: functional, organism-based; details: time 21.0 day
SW-620 [3] = test: Potentiation of PTX-induced antitumor activity against human SW620/Ad300 cells xenografted in BALB/c mouse assessed as reduction in tumor volume at 20 mg/kg/day, ig for 21 days relative to PTX alone; type: functional, organism-based; details: time 21.0 day
[4] = molecular target: Multidrug resistance-associated protein 1 (Homo sapiens, UniProt P33527); test: Stabilization of ABCC1 in human SW620/Ad300 cells assessed as inhibition of high temperature-induced ABCB1 protein degradation at 200 uM incubated for 30 mins by cellular thermal shift assay; type: cell-based; details: sw-620, 0.5 h
[5] = molecular target: T1, ATP-dependent translocase ABCB1 (Homo sapiens, UniProt P08183); test: Stabilization of ABCB1 in human SW620/Ad300 cells assessed as inhibition of high temperature-induced ABCB1 protein degradation at 200 uM incubated for 30 mins by cellular thermal shift assay; type: cell-based; details: sw-620, 0.5 h
CYP3A4 = CYP3A4 (Homo sapiens, UniProt P08684); test: Activation of CYP3A4 in human liver microsomes at 20 uM after 30 mins in presence of CYP3A4 substrate/NADP+ by fluorescence based assay; type: ADME; details: read-out: FC
Cytochrome P450 3A4 = Cytochrome P450 3A4 (Homo sapiens, UniProt P08684); test: Activation of CYP3A4 in human liver microsomes at 30 uM incubated for 10 mins in presence of CYP3A4 substrate/NADP+ by fluorescence based assay; type: ADME
[6] = molecular target: T1, ATP-dependent translocase ABCB1; test: Stimulation of ABCB1 ATPase activity (unknown origin) assessed as increase in inorganic phosphate release at 5 to 45 uM incubated for 20 mins in presence of Mg-ATP by spectrophotometry; details: dose 5-45 µM
SW-620 [7] = test: Effect on ABCB1 subcellular localization in human SW620/Ad300 cells at 20 uM incubated for 72 hrs by Western blotting analysis; type: functional, cell-based
SW-620 [8] = test: Effect on ABCB1 protein expression in human SW620/Ad300 cells at 20 uM incubated for 72 hrs by Western blotting analysis; type: functional, cell-based
SW-620 [9] = test: Inhibition of [3H]PTX efflux in human SW620 cells at 20 uM pre-incubated for 4 hrs followed by PTX addition and measured after 2 hrs by liquid scintillation counting analysis; type: functional, cell-based; details: time 6.0 hrs
SW-620 [10] = test: Effect on intracellular PTX concentration in human SW620 cells at 20 uM pre-incubated for 4 hrs followed by PTX addition and measured after 2 hrs by liquid scintillation counting analysis; type: functional, cell-based; details: time 6.0 hrs
[11] = Reversal of resistance to paclitaxel-induced cytotoxicity in HEK293 cells assessed as reduction in paclitaxel IC50 at 20 uM pre-incubated for 4 hrs followed by paclitaxel addition and measured after 72 hrs by MTT assay; type: functional, Homo sapiens; details: time 76 hrs
[12] = Reversal of resistance to paclitaxel-induced cytotoxicity in HEK293 cells assessed as reduction in paclitaxel IC50 at 10 uM pre-incubated for 4 hrs followed by paclitaxel addition and measured after 72 hrs by MTT assay; type: functional, Homo sapiens; details: time 76 hrs
SW-620 [13] = test: Potentiation of PTX-induced antitumor activity against human SW620/Ad300 cells xenografted in BALB/c mouse assessed as reduction in tumor weight at 20 mg/kg/day, ig for 21 days relative to PTX alone; type: functional, organism-based; details: time 21.0 day
[14] = Reversal of resistance to paclitaxel-induced cytotoxicity in human KB-3-1 cells assessed as reduction in paclitaxel IC50 at 20 uM pre-incubated for 4 hrs followed by paclitaxel addition and measured after 72 hrs by MTT assay; type: functional; details: time 76 hrs
[15] = Reversal of resistance to paclitaxel-induced cytotoxicity in human KB-3-1 cells assessed as reduction in paclitaxel IC50 at 10 uM pre-incubated for 4 hrs followed by paclitaxel addition and measured after 72 hrs by MTT assay; type: functional; details: time 76 hrs
[16] = Reversal of resistance to paclitaxel-induced cytotoxicity against human SW620 cells by measuring reduction in paclitaxel IC50 at 20 uM pre-incubated for 4 hrs followed by paclitaxel addition and measured after 72 hrs by MTT assay; type: functional, SW-620; details: time 76 hrs
[17] = Reversal of resistance to paclitaxel-induced cytotoxicity against human SW620 cells by measuring reduction in paclitaxel IC50 at 10 uM pre-incubated for 4 hrs followed by paclitaxel addition and measured after 72 hrs by MTT assay; type: functional, SW-620; details: time 76 hrs
SW-620 [18] = test: Antitumor activity against human SW620/Ad300 cells xenografted in BALB/c mouse assessed as induction of tumor death by measuring nuclear pyknosis at 20 mg/kg/day, ig for 21 days by H and E staining based assay; type: functional, organism-based; details: time 21.0 day
[19] = Toxicity in BALB/c mouse xenografted with human SW620/Ad300 cells assessed as induction of liver injury at 20 mg/kg/day, ig by H and E staining based assay; type: organism-based; details: in vivo, po
[20] = Toxicity in BALB/c mouse xenografted with human SW620/Ad300 cells assessed as effect on body weight changes at 20 mg/kg/day, ig; type: organism-based; details: in vivo, po
[21] = Toxicity in BALB/c mouse xenografted with human SW620/Ad300 cells assessed as induction of mortality at 20 mg/kg/day, ig; type: organism-based; details: in vivo, po
[22] = Inhibition of ABCB1 in multidrug-resistant human SW620/Ad300 cells assessed as increase in reversal of resistance to paclitaxel-induced cytotoxicity by measuring paclitaxel IC50 pre-incubated for 4 hrs followed by paclitaxel addition and measured after 72 hrs by MTT assay (reference value: 4.23 +/- 0.6 uM)
SW-620 [23] = test: Effect on intracellular PTX concentration in human SW620 cells at 4 uM pre-incubated for 4 hrs followed by PTX addition and measured after 2 hrs by liquid scintillation counting analysis; type: functional, cell-based; details: time 6.0 hrs
SW-620 [24] = details: Homo sapiens, dose 6.0 mg/kg/day, time 21.0 day
[25] = Toxicity in human SW-620/Ad300 cells assessed as cell viability at 20 uM incubated for 72 hrs by MTT assay; type: cell-based; details: read-out: Activity

T1 sequence (P08183 whole entry): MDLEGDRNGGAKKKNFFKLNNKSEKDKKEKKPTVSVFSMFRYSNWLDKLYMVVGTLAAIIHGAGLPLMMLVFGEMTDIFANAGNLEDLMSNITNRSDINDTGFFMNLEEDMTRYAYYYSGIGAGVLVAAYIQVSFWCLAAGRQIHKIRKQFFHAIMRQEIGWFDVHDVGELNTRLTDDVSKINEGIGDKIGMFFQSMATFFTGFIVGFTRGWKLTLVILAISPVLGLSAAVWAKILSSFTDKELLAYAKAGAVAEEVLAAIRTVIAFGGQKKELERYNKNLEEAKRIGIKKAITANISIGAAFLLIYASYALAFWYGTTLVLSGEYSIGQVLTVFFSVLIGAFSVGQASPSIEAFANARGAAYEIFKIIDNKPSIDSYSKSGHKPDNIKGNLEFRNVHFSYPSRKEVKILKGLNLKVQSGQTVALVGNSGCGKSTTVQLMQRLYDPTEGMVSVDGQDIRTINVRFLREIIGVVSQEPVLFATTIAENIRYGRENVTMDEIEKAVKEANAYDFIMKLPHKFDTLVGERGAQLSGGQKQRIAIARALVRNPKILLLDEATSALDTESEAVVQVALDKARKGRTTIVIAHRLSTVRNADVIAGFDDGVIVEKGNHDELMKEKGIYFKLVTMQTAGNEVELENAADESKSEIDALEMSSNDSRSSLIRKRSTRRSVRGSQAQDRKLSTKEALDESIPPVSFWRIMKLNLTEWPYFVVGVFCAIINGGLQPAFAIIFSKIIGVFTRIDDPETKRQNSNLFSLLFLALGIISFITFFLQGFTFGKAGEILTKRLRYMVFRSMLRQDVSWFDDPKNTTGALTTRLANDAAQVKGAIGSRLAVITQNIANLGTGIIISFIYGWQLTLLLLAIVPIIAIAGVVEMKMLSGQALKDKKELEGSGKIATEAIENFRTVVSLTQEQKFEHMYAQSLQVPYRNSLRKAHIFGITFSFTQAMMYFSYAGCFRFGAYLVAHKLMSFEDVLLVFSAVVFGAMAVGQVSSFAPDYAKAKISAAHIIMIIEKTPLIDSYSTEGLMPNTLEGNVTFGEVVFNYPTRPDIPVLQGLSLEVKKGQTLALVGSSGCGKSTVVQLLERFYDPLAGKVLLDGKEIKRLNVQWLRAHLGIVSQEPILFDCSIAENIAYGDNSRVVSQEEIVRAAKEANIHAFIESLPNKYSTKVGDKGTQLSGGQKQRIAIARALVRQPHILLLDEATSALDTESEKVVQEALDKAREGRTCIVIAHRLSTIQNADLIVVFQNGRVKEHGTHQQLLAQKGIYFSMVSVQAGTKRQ
Chain of CYP3A4 (P08684 whole entry): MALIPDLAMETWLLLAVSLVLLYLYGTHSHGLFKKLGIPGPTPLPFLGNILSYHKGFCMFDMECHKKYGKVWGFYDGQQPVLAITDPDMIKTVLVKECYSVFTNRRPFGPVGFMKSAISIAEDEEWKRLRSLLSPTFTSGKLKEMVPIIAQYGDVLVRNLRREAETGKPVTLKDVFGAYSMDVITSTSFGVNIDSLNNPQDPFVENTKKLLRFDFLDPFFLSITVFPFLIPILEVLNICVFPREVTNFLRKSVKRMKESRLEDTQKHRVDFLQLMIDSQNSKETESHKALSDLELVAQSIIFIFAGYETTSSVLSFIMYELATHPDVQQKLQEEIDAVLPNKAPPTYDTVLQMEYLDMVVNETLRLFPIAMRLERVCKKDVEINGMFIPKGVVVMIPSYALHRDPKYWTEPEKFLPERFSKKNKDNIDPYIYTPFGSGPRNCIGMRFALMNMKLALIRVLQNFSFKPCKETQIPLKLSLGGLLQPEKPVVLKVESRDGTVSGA
Chain of Cytochrome P450 3A4 (P08684 whole entry): as above
Chain of Multidrug resistance-associated protein 1 (P33527 whole entry): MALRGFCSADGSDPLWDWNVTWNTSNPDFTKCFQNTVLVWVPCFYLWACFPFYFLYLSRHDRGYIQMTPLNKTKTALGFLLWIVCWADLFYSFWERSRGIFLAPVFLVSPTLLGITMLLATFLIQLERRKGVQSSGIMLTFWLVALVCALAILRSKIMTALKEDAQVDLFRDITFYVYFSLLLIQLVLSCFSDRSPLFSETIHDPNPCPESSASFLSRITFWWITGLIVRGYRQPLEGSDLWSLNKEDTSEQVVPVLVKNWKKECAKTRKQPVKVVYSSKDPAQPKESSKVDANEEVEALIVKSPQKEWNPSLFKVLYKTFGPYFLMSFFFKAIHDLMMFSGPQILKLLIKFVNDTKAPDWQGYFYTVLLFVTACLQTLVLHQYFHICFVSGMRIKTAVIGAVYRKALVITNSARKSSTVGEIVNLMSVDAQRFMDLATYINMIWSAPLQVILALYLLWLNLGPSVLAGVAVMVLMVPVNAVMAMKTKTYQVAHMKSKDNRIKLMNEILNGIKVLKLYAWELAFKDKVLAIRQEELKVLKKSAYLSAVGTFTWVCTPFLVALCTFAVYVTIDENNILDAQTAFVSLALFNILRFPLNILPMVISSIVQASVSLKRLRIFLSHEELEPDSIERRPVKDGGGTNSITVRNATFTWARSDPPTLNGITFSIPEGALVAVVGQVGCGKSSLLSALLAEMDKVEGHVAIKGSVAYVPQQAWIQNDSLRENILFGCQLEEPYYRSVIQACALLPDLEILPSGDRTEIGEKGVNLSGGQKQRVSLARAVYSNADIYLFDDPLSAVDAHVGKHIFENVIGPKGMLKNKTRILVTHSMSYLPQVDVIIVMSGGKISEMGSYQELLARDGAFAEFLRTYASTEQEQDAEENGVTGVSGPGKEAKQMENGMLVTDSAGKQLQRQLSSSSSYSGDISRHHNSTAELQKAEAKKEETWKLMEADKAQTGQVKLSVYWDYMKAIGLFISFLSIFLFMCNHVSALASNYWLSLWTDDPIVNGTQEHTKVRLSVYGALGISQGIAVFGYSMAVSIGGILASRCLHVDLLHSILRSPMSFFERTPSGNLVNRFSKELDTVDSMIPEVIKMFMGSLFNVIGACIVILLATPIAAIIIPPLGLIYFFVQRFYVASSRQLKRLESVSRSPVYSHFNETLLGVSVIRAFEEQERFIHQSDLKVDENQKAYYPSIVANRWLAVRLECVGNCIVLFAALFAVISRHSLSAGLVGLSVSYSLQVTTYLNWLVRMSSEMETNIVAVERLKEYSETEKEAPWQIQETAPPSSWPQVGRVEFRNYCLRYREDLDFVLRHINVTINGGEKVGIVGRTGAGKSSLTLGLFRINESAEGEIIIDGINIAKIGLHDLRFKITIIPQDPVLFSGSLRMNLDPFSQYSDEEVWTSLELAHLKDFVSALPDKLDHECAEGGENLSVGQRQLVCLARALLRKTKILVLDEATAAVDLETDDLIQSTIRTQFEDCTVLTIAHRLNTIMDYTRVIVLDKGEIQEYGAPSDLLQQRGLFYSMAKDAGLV

## Cc1cc(Nc2ccc(F)cc2)n2nc(SCc3nc4ccccc4[nH]3)nc2n1
SW-620 [1]
  Activity: Active
SW-620 [2]
  TGI: inactive
SW-620 [3]
  TGI: Active
[4]
  Activity: Not Active
[5]
  Activity: Active
CYP3A4
  fold induction at 0.5 h, 20 µM: 1.06
Cytochrome P450 3A4
  Activity: Active
[6]
  fold change (FC): 2.5
SW-620 [7]
  Activity: inactive
SW-620 [8]
  Activity: inactive
SW-620 [9]
  inhibition: Active
SW-620 [10]
  Activity: inactive
[11]
  fold change (FC): 1.29
[12]
  fold change (FC): 1.3
SW-620 [13]
  TGI: Active
[14]
  fold change (FC): 1.52
[15]
  fold change (FC): 1.5
[16]
  fold change (FC): 1.5
[17]
  fold change (FC): 1.05
SW-620 [18]
  Activity: Active
[19]
  Activity: Non-Toxic
[20]
  Activity: Non-Toxic
[21]
  Activity: Non-Toxic

## N#Cc1c(Nc2cccc(Cl)c2)nc(SCC(=O)NC(=O)Nc2ccccn2)nc1-c1ccccc1
[22]
  IC50: 5000 nM

## Cc1cc(Nc2cc(F)c(F)cc2F)n2nc(SCc3nc4ccccc4[nH]3)nc2n1
[22]
  IC50: 260 nM

## Cc1cc(Nc2c(F)cccc2F)n2nc(SCc3nc4ccccc4[nH]3)nc2n1
[22]
  IC50: 790 nM

## Cc1cc(Nc2ccccc2)n2nc(SCc3nc4ccccc4[nH]3)nc2n1
[22]
  IC50: 46 nM

## CCc1cc(Nc2ccc(F)cc2)n2nc(SCc3ccccc3)nc2n1
[22]
  IC50: 1610 nM

## COc1ccc(CSc2nc3nc(C)cc(Nc4ccc(F)cc4)n3n2)cc1
[22]
  IC50: 1930 nM

## Cc1cc(Nc2ccc(O)c(Cl)c2)n2nc(SCc3nc4ccccc4[nH]3)nc2n1
[22]
  IC50: 3220 nM

## COc1ccc(CCN(C)CCCC(C#N)(c2ccc(OC)c(OC)c2)C(C)C)cc1OC (stereo not given)
SW-620 [23]
  Activity: inactive
SW-620 [24]
  TGI: Active

## Cc1cc(Nc2ccc(F)cc2)n2ncnc2n1
[25]
  viability at 72 h, 20 µM: 93.2%

## Cc1ccccc1Nc1nc(SCc2cn(Cc3ccc(Cl)cc3)nn2)nc(-c2ccccc2)c1C#N
[22]
  IC50: 36000 nM

## Cc1ccc(CSc2nc3nc(C)cc(Nc4ccc(F)cc4)n3n2)cc1
[22]
  IC50: 2040 nM
